Reference: publication PMC7335359, “Design and Synthesis of Dihydroxamic Acids as HDAC6/8/10 Inhibitors” (Chemmedchem, 2020)

Legend:
HDAC8 = target: T1, HDAC8 (Homo sapiens, UniProt Q9BY41); test: HDAC-Glo I/II enzymatic assay, HDAC8; assay type: biochemical; details: read-out: HDAC8 pIC50 (converted)
T1 construct: purchased BPS Bioscience 50008
T1 sequence (Q9BY41 1-377): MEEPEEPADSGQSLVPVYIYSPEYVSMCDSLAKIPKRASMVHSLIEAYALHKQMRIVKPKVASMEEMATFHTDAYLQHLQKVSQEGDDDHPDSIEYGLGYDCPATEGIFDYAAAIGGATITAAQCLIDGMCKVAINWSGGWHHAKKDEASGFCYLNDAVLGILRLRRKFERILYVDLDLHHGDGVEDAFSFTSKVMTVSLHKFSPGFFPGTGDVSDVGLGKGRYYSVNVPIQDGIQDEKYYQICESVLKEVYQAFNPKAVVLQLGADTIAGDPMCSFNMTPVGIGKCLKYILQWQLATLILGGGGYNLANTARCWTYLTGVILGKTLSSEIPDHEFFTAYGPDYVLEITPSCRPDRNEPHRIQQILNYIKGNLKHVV
Description: (§1) Inhibitors were tested at eight serial dilutions in triplicate ranging from 50 μM–86,7 pM (HDAC6) or 100 μM–8,67 nM (HDAC1,2,3,8). Drug dosing was performed from 10 mM and 0.1 mM DMSO stock solutions with a D300e Digital Dispenser (Tecan). HDACs (7 ng/mL for HDAC1, 10 ng/mL for HDAC2, 200 ng/mL for HDAC3/Ncor2 complex, 100 ng/mL for HDAC6, 200 ng/mL for HDAC8) and inhibitors were incubated together for 30 min at room temperature. After addition of the HDAC‐Glo™ I/II reagent, plates were shaken (800 rpm orbital shaker, 30 s), centrifuged (300 g, 1 min) and incubated at room temperature for 30 min. Luminescence was detected with a CLARIOstar (BMG Labtech) plate reader.

HDAC1 = target: T2, HDAC1 (Homo sapiens, UniProt Q13547); test: HDAC-Glo I/II enzymatic assay, HDAC1; assay type: biochemical; details: read-out: HDAC1 pIC50 (converted)
T2 construct: purchased BPS Bioscience 50051
T2 sequence (Q13547 whole entry): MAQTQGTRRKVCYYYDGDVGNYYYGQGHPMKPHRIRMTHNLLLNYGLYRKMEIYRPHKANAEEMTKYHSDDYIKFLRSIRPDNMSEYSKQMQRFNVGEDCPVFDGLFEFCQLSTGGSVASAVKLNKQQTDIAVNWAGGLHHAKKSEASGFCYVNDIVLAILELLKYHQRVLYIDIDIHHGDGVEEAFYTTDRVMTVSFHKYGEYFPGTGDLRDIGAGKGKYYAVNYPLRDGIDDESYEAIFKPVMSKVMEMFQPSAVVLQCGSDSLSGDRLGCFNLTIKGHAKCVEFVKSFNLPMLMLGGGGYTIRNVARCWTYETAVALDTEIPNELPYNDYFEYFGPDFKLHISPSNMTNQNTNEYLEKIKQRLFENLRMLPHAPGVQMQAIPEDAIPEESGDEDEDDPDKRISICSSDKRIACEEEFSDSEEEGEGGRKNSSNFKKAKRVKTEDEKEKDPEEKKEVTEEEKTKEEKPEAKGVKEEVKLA
Description: as §1

HDAC2 = target: T3, HDAC2 (Homo sapiens, UniProt Q92769); test: HDAC-Glo I/II enzymatic assay, HDAC2; assay type: biochemical; details: read-out: HDAC2 pIC50 (converted)
T3 construct: purchased BPS Bioscience 50002
T3 sequence (Q92769 whole entry): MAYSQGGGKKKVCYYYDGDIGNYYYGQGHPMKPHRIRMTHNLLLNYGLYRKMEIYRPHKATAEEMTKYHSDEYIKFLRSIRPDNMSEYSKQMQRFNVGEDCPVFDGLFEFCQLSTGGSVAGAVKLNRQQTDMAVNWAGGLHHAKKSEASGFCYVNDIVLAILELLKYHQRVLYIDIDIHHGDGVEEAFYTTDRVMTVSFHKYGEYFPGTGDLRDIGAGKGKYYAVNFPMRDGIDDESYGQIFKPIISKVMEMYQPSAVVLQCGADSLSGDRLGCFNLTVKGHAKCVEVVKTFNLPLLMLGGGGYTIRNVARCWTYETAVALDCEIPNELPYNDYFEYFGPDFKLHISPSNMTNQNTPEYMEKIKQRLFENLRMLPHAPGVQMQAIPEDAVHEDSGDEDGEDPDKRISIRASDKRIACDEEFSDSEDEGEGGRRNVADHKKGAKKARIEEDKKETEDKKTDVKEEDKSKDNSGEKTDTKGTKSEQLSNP
Description: as §1

HDAC10 = target: T4, HDAC10 (Homo sapiens, UniProt Q969S8); test: ligand displacement TR-FRET assay, HDAC10; assay type: binding; parameters: host or cells: Sf21 insect cells (baculovirus); details: for IC50: ligand-displacement FRET assay, read-out: HDAC10 pIC50 (converted)
T4 sequence (Q969S8 1-669): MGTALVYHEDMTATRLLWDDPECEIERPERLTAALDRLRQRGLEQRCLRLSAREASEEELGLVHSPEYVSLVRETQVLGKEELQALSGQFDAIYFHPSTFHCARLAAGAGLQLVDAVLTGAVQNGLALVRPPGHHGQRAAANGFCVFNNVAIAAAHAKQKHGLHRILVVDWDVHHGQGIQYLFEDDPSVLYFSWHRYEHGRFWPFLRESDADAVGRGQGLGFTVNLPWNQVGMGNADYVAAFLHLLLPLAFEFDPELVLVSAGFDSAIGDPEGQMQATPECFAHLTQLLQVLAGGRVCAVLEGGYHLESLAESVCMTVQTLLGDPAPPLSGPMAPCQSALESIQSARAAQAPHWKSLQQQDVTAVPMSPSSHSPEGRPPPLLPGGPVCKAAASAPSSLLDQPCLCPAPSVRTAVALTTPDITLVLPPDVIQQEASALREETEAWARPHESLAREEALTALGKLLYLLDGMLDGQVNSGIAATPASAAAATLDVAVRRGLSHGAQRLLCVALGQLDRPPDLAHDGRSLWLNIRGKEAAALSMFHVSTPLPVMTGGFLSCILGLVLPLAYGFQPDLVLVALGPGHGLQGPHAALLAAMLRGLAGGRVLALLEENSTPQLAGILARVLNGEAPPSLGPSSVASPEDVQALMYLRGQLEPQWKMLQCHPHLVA
Description: Expression and purification of TwinStrepII‐GST‐HDAC10: A synthetic gene encoding TwinStrepII‐GST‐HDAC10 (human) was ordered from GeneArt (Thermo Fischer Scientific) and subcloned into the pFastBac1 vector. The resulting construct was used for transposition in E. coli DH10EMBacY cells. The isolated bacmid DNA was then used to generate the recombinant baculovirus. For protein expression, 10 mL of baculovirus was added to 1 L of Sf21 cells at a density of 1×10^6 cells/mL. The infected Sf21 cells were grown for 72 h in Sf‐900 III SFM medium (Thermo Fischer Scientific) at 27 °C. Cells were harvested by centrifugation and re‐suspended in running buffer (100 mM Tris pH 8.0, 150 mM NaCl, 1 mM EDTA and 1 mM DTT) supplemented with 10 mM MgCl2, benzonase and cOmplete protease inhibitors (Merck). […] The clarified lysate was then loaded onto a 5 mL Strep‐Tactin Superflow high capacity column (IBA) pre‐equilibrated in running buffer. After sample loading and washing, the TwinStrepII‐GST‐HDAC10 protein was eluted in running buffer supplemented with 5 mM desthiobiotin (IBA). The elution fractions containing TwinStrepII‐GST‐HDAC10 were pooled and concentrated before being injected onto a HiLoad 16/600 Superdex 200 pg size exclusion chromatography column (GE Healthcare) pre‐equilibrated with 25 mM HEPES/NaCl pH 7.5, 150 mM NaCl, 0.5 mM EDTA, 1 mM DTT and 10 % glycerol. Samples were eluted from the size exclusion chromatography column in the same buffer, flash‐frozen in liquid N2 and stored at −80 °C.
The TR‐FRET measurements of the monohydroxamic acids in this manuscript were measured in the original assay format, which is described directly below this paragraph. The TR‐FRET measurements of the dihydroxamic acids in this manuscript were measured in the modified format, which is described two paragraphs below this one.
The concentrations of reagents in 10 μL final assay volume were 3 nM GST‐HDAC10, 30 nM “Tubastatin‐Alexa647‐Tracer” and 0.5 nM Eu‐anti‐GST. GST‐HDAC10 and LanthaScreen™ Eu‐anti‐GST Antibody were purchased from Life Technologies, and the Tubastatin‐Alexa647‐Tracer was synthesized in‐house as previously described.19 An 11‐fold 1 : 3‐serial dilution of compounds starting at 2 mM was prepared in 384 well pp‐plates (Greiner) from 10 mM stocks in DMSO and 1 μL was transferred to assay plates. Nine μL of the reagent‐mix was added and the plate was incubated for 1 h at RT before TR‐FRET was measured in an EnVision™ plate reader equipped with a TR‐FRET Laser module. […] Percent inhibition was calculated for each well from negative control wells containing 2 % DMSO and positive control wells containing 20 μM SAHA. The resulting dose‐response curves were fitted in ActivityBase (IDBS) using a four‐parameter logistic model and pIC50‐values were calculated.
After drug dosing to the premixed assay reagents in buffer, plates were shaken (800 rpm orbital shaker, 30 s), centrifuged (300 g, 1 min) and incubated at room temperature in the dark for 60 min. TR‐FRET was measured with a CLARIOstar (BMG Labtech) plate reader, equipped with TR‐FRET filters.

SMILES | IC50 (HDAC8) | IC50 (HDAC1) | IC50 (HDAC2) | IC50 (HDAC10) | increase in HDAC10 potency over the monohydroxamic acid 1f (HDAC10; FRET assay, 3f versus 1f)
O=C(NO)c1ccc(Cc2c[nH]c3ccc(C(=O)NO)cc23)cc1 [Compound 3d] | 97.7 nM | 525 nM | 4680 nM | 3.24 nM | 
O=C(NO)c1ccc(Cn2ncc3ccc(C(=O)NO)cc32)cc1 [Compound 3f] | 42.7 nM | 87.1 nM | 724 nM | 3.39 nM | ~70 factor
CN(C)Cc1nn(Cc2ccc(C(=O)NO)cc2)c2cc(C(=O)NO)ccc12 [Compound 3g] | 89.1 nM | 661 nM | 9550 nM | 3.98 nM | 
O=C(NO)c1ccc(Cn2ccc3ccc(C(=O)NO)cc32)cc1 [Compound 3a] | 67.6 nM | 263 nM | 2240 nM | 2.57 nM | 
CN(C)Cc1nn(Cc2ccc(C(=O)NO)cc2)c2ccccc12 [Compound 1g] | 851 nM |  |  | 19.5 nM | 
CN1CCc2c(c3ccc(C(=O)NO)cc3n2Cc2ccc(C(=O)NO)cc2)C1 [Compound 3c] | 513 nM | 501 nM | 4170 nM | 12.3 nM | 
CN(C)Cc1cn(Cc2ccc(C(=O)NO)cc2)c2cc(C(=O)NO)ccc12 [Compound 3b] | 166 nM | 617 nM | 5370 nM | 2.82 nM | 
CN(C)CCn1cc(Cc2ccc(C(=O)NO)cc2)c2cc(C(=O)NO)ccc21 [Compound 3e] | 66.1 nM | 813 nM | 7080 nM | 3.02 nM | 
